# Laboratory results reported in PubChem BioAssay (NCI).
#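 Growth conditions: 96-well plates. Treatment: test compound, 48 hours, 5 concentrations. Analysis: linear interpolation between bracketing concentrations; unreached endpoints set to highest concentration. GI50 marks 50% less growth. TGI: concentration producing complete growth inhibition.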
# Assays:
# Assay in all cases: DTP human tumour cell line panel, 48 h
# UACC-257 melanoma = tested on: UACC-257 melanoma
# EKVX NSCLC = tested on: EKVX NSCLC
# RXF 393 renal = tested on: RXF 393 renal
# SF-539 CNS = tested on: SF-539 CNS
# SW-620 colon = tested on: SW-620 colon
# UO-31 renal = tested on: UO-31 renal
# CAKI-1 renal = tested on: CAKI-1 renal
# NCI-H226 lung = tested on: NCI-H226 lung
# UACC-62 melanoma = tested on: UACC-62 melanoma
# PC-3 prostate = tested on: PC-3 prostate
SMILES,TGI (UACC-257 melanoma) [µM],TGI (EKVX NSCLC) [µM],TGI (RXF 393 renal) [µM],TGI (SF-539 CNS) [µM],TGI (SW-620 colon) [µM],TGI (UO-31 renal) [µM],TGI (CAKI-1 renal) [µM],TGI (NCI-H226 lung) [µM],TGI (UACC-62 melanoma) [µM],GI50 (UACC-257 melanoma) [µM],GI50 (CAKI-1 renal) [µM],GI50 (EKVX NSCLC) [µM],GI50 (RXF 393 renal) [µM],GI50 (NCI-H226 lung) [µM],GI50 (UACC-62 melanoma) [µM],GI50 (SF-539 CNS) [µM],GI50 (SW-620 colon) [µM],GI50 (UO-31 renal) [µM],GI50 (PC-3 prostate) [µM],TGI (PC-3 prostate) [µM]
O=C1/C(=C/c2ccc(Cl)cc2)COc2ccc(Br)cc21,> 100,> 100,> 100,> 100,> 100,> 100,–,–,–,–,–,–,–,–,–,–,–,–,–,–
C=CCN1C(=O)C/C(=C2/CCC(=O)N2CC=C)C1=O,> 100,> 100,> 100,> 100,> 100,> 100,> 100,> 100,> 100,–,–,–,–,–,–,–,–,–,–,–
C/C(=N/OCCC(=O)O)C1CC1,–,> 100,> 100,> 100,> 100,> 100,> 100,> 100,> 100,–,–,–,–,–,–,–,–,–,–,–
O=C(Nc1ccc(Oc2cccc(Cl)c2)c(Cl)c1)c1cccnc1,27,> 50,4.65,7.54,> 50,30,36.6,32,> 50,5.1,2.63,3.62,0.927,2.16,3.89,1.49,1.21,3.63,–,–
c1cc[c]([Sn]([O]c2cccc3cccnc23)([c]2ccccc2)[c]2ccccc2)cc1,0.117,0.17,0.0333,0.0387,0.0217,0.0301,0.0852,0.153,0.0188,0.0334,0.0188,0.0416,0.0154,0.0454,< 0.01,0.0195,0.0101,0.0163,–,–
Cc1ccc(S(=O)(=O)N/N=C/CN2C(=O)c3ccccc3C2=O)cc1,> 100,> 100,–,> 100,> 100,> 100,> 100,> 100,> 100,–,–,–,–,–,–,–,–,–,–,–
COc1ccccc1NC(=O)NS(=O)(=O)c1ccccc1,> 100,> 100,98.2,> 100,> 100,> 100,> 100,> 100,–,–,–,–,–,–,–,–,–,–,–,–
NC(=O)COc1ccc(Br)cc1Br,> 100,> 100,–,> 100,> 100,> 100,> 100,> 100,–,–,–,–,–,–,–,–,–,–,–,–
CCCN(CCC)c1c([N+](=O)[O-])cc(C(N)=O)cc1[N+](=O)[O-],> 100,> 100,–,> 100,–,> 100,> 100,> 100,–,–,–,–,–,–,–,–,–,–,–,–
O=C1/C(=C/c2ccccc2)CN(C(=O)Oc2ccccc2)C/C1=C\c1ccccc1,> 100,> 100,31.4,22.3,> 100,88.9,–,–,> 100,–,–,–,–,–,–,–,–,–,–,–
O=C1NC(=Nc2ccccc2Cl)SC1C(=O)Nc1ccc([N+](=O)[O-])cc1[N+](=O)[O-] (stereo not drawn),> 100,> 100,> 100,> 100,> 100,> 100,> 100,> 100,> 100,–,–,–,–,–,–,–,–,–,–,–
CN(C)CC1CCCCCCCCCCC1=O (stereo not drawn),> 10,> 100,> 10,–,> 100,> 100,> 100,> 100,> 100,–,> 100,> 100,–,> 100,–,–,> 100,> 100,> 100,> 100
CCC[CH2][Sn]1([CH2]CCC)[O]N=Cc2ccccc2[O]1,2.74,2.39,1.05,2.43,1.11,2.61,1.08,3.49,1.7,1.31,0.322,1.11,0.224,1.93,0.413,1.17,0.241,1.33,–,–
CC1(C)CC(=O)C=C(NC(=O)c2ccccc2)C1,> 100,> 100,> 100,> 100,> 100,> 100,> 100,–,> 100,–,–,–,–,–,–,–,–,–,–,–
CC(C)=CCCC1(C)C=Cc2c(ccc3c2[nH]c2cc(O)c(C)cc23)O1 (stereo not drawn),–,–,10.1,9.78,9.49,> 2.5,–,14.6,> 25,–,–,–,5.27,7.02,9.4,4.59,4.68,–,–,–
C/C(CC(=O)Nc1cc(Cl)c(Cl)cc1Cl)=N\NS(=O)(=O)c1ccc(C)cc1,> 100,> 100,82.7,85.8,> 100,52.3,–,53,75.9,–,–,–,–,–,–,–,–,–,–,–
CC1CC(=O)CC[C@@H]1OCc1ccccc1 (stereo partly drawn),> 100,> 100,> 100,> 100,> 100,> 100,> 100,–,> 100,–,–,–,–,–,–,–,–,–,–,–
COC(=O)C([O][Ge]([CH3])([CH3])[CH3])c1ccccc1 (stereo not drawn),> 100,> 100,–,> 100,> 100,> 100,> 100,> 100,> 100,> 100,> 100,> 100,–,> 100,> 100,> 100,> 100,> 100,–,–
CCOc1c(Cc2ccccc2)c(=O)n2c3ccccc3n3c(=O)n(C)c(=O)c1c23,> 100,> 100,> 100,> 100,> 100,> 100,> 100,–,> 100,–,–,–,–,–,–,–,–,–,–,–
COC(=O)C1=C(c2cc(OC)c(OC)c(OC)c2)OC(c2cc(OC)c(OC)c(OC)c2)C1 (stereo not drawn),51.5,–,75.2,75.1,> 100,40,60.9,75.4,27.5,–,–,–,–,–,–,–,–,–,–,–
N#CC(N)(C(=O)C(=O)NCCCNC(=O)C(=O)C(N)(C#N)c1ccc(Cl)cc1)c1ccc(Cl)cc1 (stereo not drawn),> 100,> 100,> 100,> 100,> 100,> 100,> 100,> 100,> 100,–,–,–,–,–,–,–,–,–,–,–
